# Test system: Rhodococcus rhodochrous ATCC #53968
# Experiment: Digestion of Red River crude oil with and without beta-oxidation inhibitors; GC of methyl esters of extracted organic acids
# Type: cell-based
# Details: for Total GC (all peaks integrated by the GC integrator): 0.31 g oil sample; for conv. To umoles FA: approximately 1.0 micromoles per 100 area units; for Cal. AN (calculated acid number): estimated from GC areas
# Procedure: An oil degrading microorganism was used to evaluate the use of chemical inhibitors to slow the utilization of hydrocarbons in petroleum. In a non-limiting example, three different chemical compounds that have been reported to inhibit beta-oxidation were tested in oil and culture medium on a petroleum sample with a strain of Rhodococcus rhodochrous ATCC #53968 in m9 minimal medium. To test the ability of each chemical inhibitor to slow the consumption of fatty acids a culture of bacteria was grown on a crude oil sample for a period of three days with crude petroleum oil as the only carbon source. Four separate flasks were set up, each with an oil to aqueous media ratio of 1 to 5 (10 ml of crude oil to 50 ml of culture medium). Each of the three chemical inhibitors was added to a separate flask and a fourth flask was allowed to digest without the addition of a chemical inhibitor as a control. The flasks were shaken at a room temperature of about 25° C. under aerobic conditions. The progress of the microbial digestion was monitored by the optical density at 600 nm and by visual inspection of the brown oil color in the aqueous phase. Three days after the addition of inhibitors, or a total of six days of incubation with oil, a small sample of oil (0.31 g) was removed. A second sample of the same size was remover after another 6 days. The organic acids were extracted from each oil sample with 1% NaOH in 70% ethanol. The samples were shaken vigorously for one minute. The aqueous extract material was then extracted with hexane to remove any trace of oil. The samples of extracted organic acids were then dried under vacuum and converted to methyl esters with BF3 in methanol.
# The mixtures of methyl esters were analyzed by GC (gas chromatography) using a HP (Hewlett Packard) 5890 GC with an Agilent Technologies capillary column, HP-5 (crosslinked 5% PH) ME Siloxane 0.25 micrometer coating with a length of 30 meter and a column ID (internal diameter) of 0.32 mm. Helium was used as a carrier gas. Detection was by a FID detector and integration of peak areas was done with a HP 3396 integrator. The temperature program held an initial temperature of 40° C. for 1.0 minutes then increased at 15 degrees per minute to 280° C., and finally held at a temperature of 280° C. for 5 minutes. To quantify the amount of organic acids extracted by this procedure, a stock solution of 2-bromooctanoate and 2-bromohexadecanoate were added to a sample of undigested Red River crude petroleum oil and then extracted by the same procedure as the bio-digested oil samples. The average area for theses two organic acids was used to estimate the amount of organic acids in micromoles per area unit determined by the GC integrator. The number was calculated to be approximately 1.0 micromoles per 100 area units. The area units for each of the GC peaks are list in Table 2. This number was used to estimate the micromoles organic acids extracted from the oil. This estimate was used to calculate the number of mg of KOH that equaled the number of micromoles of organic acid estimated. This number is listed on the last row in Table 2 as the calculated AN (acid number) for each digestion experiment. These estimated numbers are only based on organic acids that are hydrophobic enough to stay in the oil phase and not move into the aqueous phase. Organic acids measured include the carboxylic acids made by the bacteria and that have been secreted out of the cell and have migrated back to the oil phase. They are also hydrocarbons that are small enough to be extracted into the ethanol aqueous extraction solvent. This number is likely to be less than the total acid number (TAN), a measure often used to evaluate crude petroleum for amenability to alkaline waterflooding.
# The earlier eluting peaks are believed to represent methyl ester of lighter hydrocarbon carboxylic acids and the later eluting peaks are believed to represent methyl ester of the heavier organic acids. […]
# [1] = 12 days, listed as acrylic acid
compound,measurement,setting,value
"C=CC(=O)O [AA, acrylic acid]","GC peak area, retention time 4.5",6 days,0.242 area units
same,"GC peak area, retention time 5.6",6 days,0.948 area units
same,"GC peak area, retention time 6.6",6 days,2.856 area units
same,"GC peak area, retention time 7.6",6 days,2.724 area units
same,"GC peak area, retention time 8.2",6 days,0.703 area units
same,"GC peak area, retention time 8.5",6 days,1.907 area units
same,"GC peak area, retention time 9.4",6 days,1.575 area units
same,"GC peak area, retention time 10.2",6 days,1.591 area units
same,"GC peak area, retention time 11",6 days,2.134 area units
same,"GC peak area, retention time 11.5",6 days,2.596 area units
same,"GC peak area, retention time 11.7",6 days,2.416 area units
same,"GC peak area, retention time 12.3",6 days,1.097 area units
same,"GC peak area, retention time 12.5",6 days,4.385 area units
same,"GC peak area, retention time 13",6 days,0.521 area units
same,"GC peak area, retention time 13.1",6 days,1.769 area units
same,"GC peak area, retention time 13.2",6 days,3.486 area units
same,"GC peak area, retention time 13.4",6 days,1.122 area units
same,"GC peak area, retention time 13.6",6 days,0.783 area units
same,"GC peak area, retention time 13.8",6 days,2.448 area units
same,"GC peak area, retention time 14",6 days,0.447 area units
same,"GC peak area, retention time 14.2",6 days,0.78 area units
same,"SubTotal peak area, later peaks eluting after 13 minutes",6 days,11.356 area units
same,"SubTotal peak area, peaks eluting before 13 minutes",6 days,25.173 area units
same,Total GC area For 1 ml,6 days,175
same,Total of all selected peaks,6 days,36.529 area units
same,Total GC (all peaks integrated by the GC integrator),6 days,54.17 area units
same,conv. To umoles FA,6 days,1.75 µmol
same,Cal. AN (calculated acid number),6 days,0.098 mg of KOH
same,"GC peak area, retention time 4.2",12 days,0.58 area units
same,"GC peak area, retention time 4.5",12 days,1.051 area units
same,"GC peak area, retention time 4.6",12 days,1.519 area units
same,"GC peak area, retention time 5.6",12 days,2.754 area units
same,"GC peak area, retention time 6.6",12 days,7.835 area units
same,"GC peak area, retention time 7.6",12 days,5.761 area units
same,"GC peak area, retention time 8.2",12 days,0.558 area units
same,"GC peak area, retention time 8.5",12 days,3.369 area units
same,"GC peak area, retention time 9.4",12 days,0.747 area units
same,"GC peak area, retention time 10.2",12 days,0.588 area units
same,"GC peak area, retention time 11",12 days,1.736 area units
same,"GC peak area, retention time 11.5",12 days,2.968 area units
same,"GC peak area, retention time 11.7",12 days,3.716 area units
same,"GC peak area, retention time 12.3",12 days,2.722 area units
same,"GC peak area, retention time 12.5",12 days,6.208 area units
same,"GC peak area, retention time 12.7",12 days,1.6421 area units
same,"GC peak area, retention time 13",12 days,1.99 area units
same,"GC peak area, retention time 13.1",12 days,2.209 area units
same,"GC peak area, retention time 13.2",12 days,4.801 area units
same,"GC peak area, retention time 13.4",12 days,3.72 area units
same,"GC peak area, retention time 13.6",12 days,2.005 area units
same,"GC peak area, retention time 13.8",12 days,2.512 area units
same,"GC peak area, retention time 14",12 days,2.548 area units
same,"GC peak area, retention time 14.2",12 days,2.779 area units
same,"SubTotal peak area, later peaks eluting after 13 minutes",12 days,22.564 area units
same,"SubTotal peak area, peaks eluting before 13 minutes",12 days,43.754 area units
same,Total GC area For 1 ml,12 days,291
same,Total of all selected peaks,12 days,66.318 area units
same,Total GC (all peaks integrated by the GC integrator),12 days,90.15 area units
same,conv. To umoles FA,12 days,2.91 µmol
same,Cal. AN (calculated acid number),12 days,0.16 mg of KOH
same,"SubTotal peak area, later peaks eluting after 13 minutes",[1],22.5 area units
same,"SubTotal peak area, peaks eluting before 13 minutes",[1],43.7 area units
"CCCCCCC(Br)C(=O)O (centres unmarked) [Br C8, 2-bromooctanoic acid]","GC peak area, retention time 4.5",6 days,0.351 area units
same,"GC peak area, retention time 5.6",6 days,0.835 area units
same,"GC peak area, retention time 6.6",6 days,2.783 area units
same,"GC peak area, retention time 7.6",6 days,2.476 area units
same,"GC peak area, retention time 8.2",6 days,0.682 area units
same,"GC peak area, retention time 8.5",6 days,1.443 area units
same,"GC peak area, retention time 9.4",6 days,1.146 area units
same,"GC peak area, retention time 10.2",6 days,1.618 area units
same,"GC peak area, retention time 11",6 days,2.608 area units
same,"GC peak area, retention time 11.5",6 days,1.69 area units
same,"GC peak area, retention time 11.7",6 days,3.004 area units
same,"GC peak area, retention time 12.3",6 days,1.604 area units
same,"GC peak area, retention time 12.5",6 days,4.566 area units
same,"GC peak area, retention time 12.7",6 days,1.145 area units
same,"GC peak area, retention time 13",6 days,1.421 area units
same,"GC peak area, retention time 13.1",6 days,2.61 area units
same,"GC peak area, retention time 13.2",6 days,3.047 area units
same,"GC peak area, retention time 13.4",6 days,2.196 area units
same,"GC peak area, retention time 13.6",6 days,1.314 area units
same,"GC peak area, retention time 13.8",6 days,3.341 area units
same,"GC peak area, retention time 14",6 days,1.661 area units
same,"GC peak area, retention time 14.2",6 days,0.963 area units
same,"SubTotal peak area, later peaks eluting after 13 minutes",6 days,16.553 area units
same,"SubTotal peak area, peaks eluting before 13 minutes",6 days,25.951 area units
same,Total GC area For 1 ml,6 days,250
same,Total of all selected peaks,6 days,42.504 area units
same,Total GC (all peaks integrated by the GC integrator),6 days,77.5 area units
same,conv. To umoles FA,6 days,2.5 µmol
same,Cal. AN (calculated acid number),6 days,0.14 mg of KOH
same,"GC peak area, retention time 4.2",12 days,0.47 area units
same,"GC peak area, retention time 4.5",12 days,0.943 area units
same,"GC peak area, retention time 5.6",12 days,1.656 area units
same,"GC peak area, retention time 6.6",12 days,4.625 area units
same,"GC peak area, retention time 7.6",12 days,3.349 area units
same,"GC peak area, retention time 8.2",12 days,0.497 area units
same,"GC peak area, retention time 8.5",12 days,1.763 area units
same,"GC peak area, retention time 9.4",12 days,0.681 area units
same,"GC peak area, retention time 10.2",12 days,0.387 area units
same,"GC peak area, retention time 11",12 days,0.985 area units
same,"GC peak area, retention time 11.5",12 days,3.548 area units
same,"GC peak area, retention time 11.7",12 days,2.41 area units
same,"GC peak area, retention time 12.3",12 days,2.973 area units
same,"GC peak area, retention time 12.5",12 days,5.664 area units
same,"GC peak area, retention time 13",12 days,2.785 area units
same,"GC peak area, retention time 13.1",12 days,4.367 area units
same,"GC peak area, retention time 13.2",12 days,7.327 area units
same,"GC peak area, retention time 13.4",12 days,8.161 area units
same,"GC peak area, retention time 13.6",12 days,4.176 area units
same,"GC peak area, retention time 13.8",12 days,4.901 area units
same,"GC peak area, retention time 14",12 days,4.709 area units
same,"GC peak area, retention time 14.2",12 days,1.74 area units
same,"SubTotal peak area, later peaks eluting after 13 minutes",12 days,38.166 area units
same,"SubTotal peak area, peaks eluting before 13 minutes",12 days,31.453 area units
same,Total GC area For 1 ml,12 days,373
same,Total of all selected peaks,12 days,69.619 area units
same,Total GC (all peaks integrated by the GC integrator),12 days,115.7 area units
same,conv. To umoles FA,12 days,3.73 µmol
same,Cal. AN (calculated acid number),12 days,0.21 mg of KOH
